In brackets after ≈: the same amount, converted by molar mass.
System: L1210
Assay: Cytotoxicity against mouse L1210 cells after 48 hrs by WST-1 assay
Type: functional
Settings: L1210, 48 h, read-out: ED50 (the source's name)

## C=CCCCCC/C=C\C(O)C#CC#CC(O)C=C (stereo not drawn)
  EC50: 0.12 µg/mL (≈ 0.464 µM)

## C=CCCCCC/C=C\[C@H](O)C#CC#C/C=C/CO [GYMNASTERKOREAYNE F]
  EC50: 3.1 µg/mL (≈ 12 µM)

## C=CCCCCC/C=C\[C@H](O)C#CC#C/C=C/COC(C)=O [GYMNASTERKOREAYNE D]
  EC50: 7.7 µg/mL (≈ 25.6 µM)

## C=CCCCCC/C=C\[C@H](O)C#CC#CC1OC1C (stereo partly drawn) [GYMNASTERKOREAYNE B]
  EC50: 3.3 µg/mL (≈ 12.8 µM)

## C/C=C/C#CC#C[C@H](O)CCO [GYMNASTERKOREAYNE A]
  EC50: > 10 µg/mL

## C=CCCCCC/C=C/[C@H](O)C#CC#C[C@@H](O)[C@H](C)O [GYMNASTERKOREAYNE E]
  EC50: 9.6 µg/mL (≈ 34.7 µM)

## C=CCCCCC/C=C\[C@H](O)C#CC#C[C@H](C=C)OC(C)=O [GYMNASTERKOREAYNE C]
  EC50: 2.1 µg/mL (≈ 6.99 µM)

## C=CCCCCC/C=C\C(O)C#CC#C/C=C/C (stereo not drawn)
  EC50: 10.4 µg/mL (≈ 42.9 µM)
